The results in this text go back to US9878982B2, “Pyridine derivatives and anti-mycobacterial use thereof” (priority 2014, dated 2018).

In brackets after ≈: the same amount, converted by molar mass. Where two headings read alike, the source gives them in different places. Where only a bound is given, the exact number is not on record here.

One data set deals with Vero Cell. The data set is described as follows: Vero cell cytotoxicity (IC50). It is filed as cell-based. The following applies: African green monkey kidney cells.
A further data set relates to M. tuberculosis H37R. In words: microbe, parasite or virus in culture. It is filed as cell-based, Mycobacterium tuberculosis.
A further data set deals with M. tuberculosis H37Rv. In words: In vitro efficacy test using the H37Rv strain, Microplate Alamar Blue Assay (MABA) MIC. It is filed as cell-based, Mycobacterium tuberculosis. The following applies: for MIC: Mycobacterium tuberculosis, H37RV. A general note: Resazurin is reduced to fluorescent resorufin, in cell work by metabolically active cells.
For data set [1], the system named is Mycobacterium tuberculosis (ATCC35801). The data set is described as follows: In vivo efficacy in a mice model infected with M. tuberculosis by spray (lung bacteria load). The following applies: female Balb/c mice, day 35, compared with the solvent treated group.
A further data set in a line: in vitro. The following applies: human.
For data set [2], the system named is Mycobacterium smegmatis strain ATCC19420. The data set is described as follows: In vitro efficacy test using Mycobacterium smegmatis strain ATCC19420 (MIC). It is filed as cell-based. The following applies: CA-MHB + 0.02% Tween 80, 30° C., read after 72 hours.
A further data set deals with Hela. In words: Hela cell cytotoxicity (CC50). The following applies: human cervical cancer cells; half of the toxic concentration.
Where [3] appears, read: aerobic, 7H9 medium, Alamar Blue.

For orientation: IC50 means the concentration that gives 50% inhibition.

Consider `COc1nc2ccc(Br)cc2cc1[C@@H](c1ccccc1)[C@@](O)(CCN(C)C)c1cccc2ccccc12` [Bedaquiline, reference compound], for which the half-maximal inhibitory concentration (IC50) with Vero Cell (Chlorocebus sabaeus, Vero) was over 32 mg/L. In addition, the MIC stood at 0.2 mg/L (≈ 0.36 µM) in the data set with M. tuberculosis H37R (Mycobacterium tuberculosis, H37R, read-out: M. tuberculosis H37R LORA (MIC)); 0.03 mg/L in the data set with M. tuberculosis H37Rv (aerobic, 7H9 medium, Alamar Blue, read-out: M. tuberculosis H37Rv MABA (MIC)); 0.06 µM in the data set with M. tuberculosis H37Rv (wild-type H37Rv strain, two values per compound, read-out: MABA MIC vs. H37Rv). The “MABA MIC vs. H37Rv” value in the data set with M. tuberculosis H37Rv (wild-type H37Rv strain, two values per compound) amounted to 0.05 µM. In addition, the “reduction of the amount of the bacteria in the lungs” value in data set [1] (25 mg/kg by gavage once each working day for four weeks) came out at 5.2 log. Moreover, the CC50 in “in vitro” is over 64 mg/L.

Consider `COc1ncc(C2CCCCC2)cc1C(c1ccccc1)C(O)(CCN(C)C)c1cccc2ccccc12` (stereo not drawn) [Compound 104, 1-(5-cyclohexyl-2-methoxypyridin-3-yl)-4-(dimethylamino)-2-(naphthalen-1-yl)-1-phenylbutan-2-ol], for which the “Vero Cell (IC50)” value with Vero Cell is over 50 mg/L. For the same molecule, in the data set on M. tuberculosis H37R, the “M. tuberculosis H37R LORA (MIC)” value is 1.52 mg/L. Also, the “M. tuberculosis H37Rv MABA (MIC)” value in the data set with M. tuberculosis H37Rv (setting [3]) is 1.45 mg/L. The “M. smegmatis ATCC19420 MIC” value in data set [2] is 0.5 mg/L. This molecule showed a CC50_Hela with Hela of 19.18 mg/L (≈ 37.7 µM).

As for `COc1ncc(-c2csc(Br)c2)cc1C(c1ccccc1)C(O)(CCN(C)C)c1cccc2ccccc12` (stereo not drawn) [Compound 275], the “Vero Cell (IC50)” value with Vero Cell is over 32 mg/L. The “M. tuberculosis H37R LORA (MIC)” value in the data set on M. tuberculosis H37R worked out at 0.67 mg/L. Besides, the “M. tuberculosis H37Rv MABA (MIC)” value with M. tuberculosis H37Rv (setting [3]) was determined as 0.41 mg/L. Also, the “M. smegmatis ATCC19420 MIC” value in data set [2] was found to be 0.125 mg/L. The CC50_Hela with Hela is over 64 mg/L.

Turning to `CO[C@H]1/C=C/O[C@@]2(C)Oc3c(C)c(O)c4c(O)c(c(/C=N/N5CCN(C)CC5)c(O)c4c3C2=O)NC(=O)/C(C)=C\C=C\[C@H](C)[C@H](O)[C@@H](C)[C@@H](O)[C@@H](C)[C@H](OC(C)=O)[C@@H]1C` [rifampicin], in data set [1] (15 mg/kg by gavage once each working day for four weeks), the “reduction of the amount of the bacteria in the lungs” value is 1.8 log.
